Reference: patent US20240108003A1, “COMPOSITIONS AND METHODS FOR IMPROVING PLANT PERFORMANCE” (Advanced Crop Chemistry, priority 2022, published 2024)
Converted amounts (≈) assume the structure as drawn.

Experiments:
[1] = tested on: Fusarium graminearum Schwabe Group 2; format: in vivo, Fusarium graminearum on wheat; conditions: foliar applications to infected wheat; ELISA on pooled grain
[2] = tested on: Zymoseptoria tritici (Septotia tritici); assay: Growth of fungal plant pathogen on amended potato dextrose agar (colony surface area); format: cell-based; conditions: 0.5 g/L in buffered PDA pH 6.2, 10 days, darkness, 68° F.
Protocol: Zymoseptoria tritici (Septotia tritici) was grown in petri dishes on buffered (pH 6.2) potato dextrose agar (PDA), amended with penicillin (100 mg/L) and streptomycin (100 mg/L) as well as 2HOP (0.5 g/L) or […]). Five replicate plates/treatments were used and the cultures were grown for 10 days in darkness at 68° F. At the end of the 10-day period, the cultures were assessed in terms of the total surface area of growth of the colonies.

lettuce plants = assay: Foliar treatment of lettuce plants, tissue aromatic amino acids; format: in vivo; conditions: 0.5 g/L
Source text: This is further supported by the data in Table 4 where foliar treatment of lettuce plants with […]) or 2HOP (0.5 g/L) increased the tissue levels of aromatic amino acids which are synthesized in the Shikimic acid pathway, a pathway that has a known role in modulation of plant innate tolerance to abiotic and biotic stresses such as disease.

Wheat (Winter White) = assay: Herbicide phytotoxicity on greenhouse wheat with and without 2HOP or L-PGA; format: in vivo; conditions: for phytotoxic impact of herbicides on wheat: combined with herbicides, foliar, assessed 10 days after application; for canopy biomass compared to the untreated: solo applications, 10 days post-treatment, visual
Protocol: Wheat (Winter White) seeds (5 g) were sown in a 1-gallon pot in a greenhouse under natural light with a diurnal temperature range of 75° F. to 90° F. Various herbicides were applied alone or in combinations with L-PGA or 2HOP. Materials were applied at the equivalent rate of 100 L water/Ha with 0.25% v/v polyalkyl glucoside added as a wetting agent. There were 4 replicates per treatment, with 1 pot/replicate. 10 days after sowing, plants received a light cover spray at an equivalent application volume of 25 gallons/acre. Plants were destructively assessed 10 days later by measuring the total above-ground biomass of each replicate.

oat seedlings [3] = assay: Proline accumulation in oat seedlings; format: in vivo; conditions: weekly foliar 100 micromolar, 3 weeks; untreated undetectable
Protocol: Sets of oat seedlings were grown and either treated or not treated with 2-hydroxy-5-oxoproline. The plants were grown in a greenhouse at 75° F. with ambient light and provided a standard complete nutrient plant food. Weekly foliar treatments were applied with 100 micromolar 2HOP began at the two-true leaf stage and continued for 3 weeks. Leaves from 20 plants were sampled and the free pools of proline were measured.

[4] = tested on: Peace Lily (Spathiphyllum); assay: Cold tolerance in a cold sensitive plant; format: in vivo; conditions: foliar 1 g/L; 4 days of 34-35° F. for 5-6 hours/day one week after treatment
Protocol: The popular ornamental plant, the “Peace Lily”, is in the genus Spathiphyllum and all species are indigenous to the tropics. […] Three groups of containerized plants (in 6-inch pots, growing in a standard potting media) were established, and foliarly treated with 1 g/L 2HOP or LPGA. A surfactant (polyalkyl glucoside) at 0.25% v/v was added to both treatments to improve leaf coverage. Plants were treated and one week later were exposed 4 days to a diurnal regime of low temperatures (34° F. to 35° F.) for at least 5-6 hours/day and a high temperature of 55° F. to 57° F. for the remainder of the day. Plants were under a natural light regime. […] See Table 10 in FIG. 7A and FIG. 7B.

oat seedlings [5] = assay: Nitrate uptake rate of hydroponic oat seedlings; format: in vivo; conditions: first four hours of treatment
Protocol: Oat seedlings were either treated or untreated and their rates of nitrogen uptake were measured. Oat seedlings were hydroponically grown in a greenhouse under ambient light at 75° F. with a complete standard soluble nutrient solution. They were acclimated to constant light, then deprived of nitrogen for a period, and then their nitrogen (nitrate) was replenished with or without 2HOP in the nutrient solution. The plant root systems were submerged in the appropriate solutions and the plants were allowed to grow and take up nitrate. The depletion of nitrate from the solution was measured every four hours to determine the rate of nitrate uptake by the plants.

leaf lettuce seedlings = assay: Dry weight and carbon fixation capability in lettuce; format: in vivo; conditions: weekly foliar 100 micromolar
Protocol: Sets (replicates) of leaf lettuce seedlings were treated with 2HOP or left untreated. Seedlings were grown in a greenhouse (75° F.) with ambient light, supplied with a standard liquid nutrient solution. The treated plants received weekly foliar sprays containing 100 micromolar 2HOP. Each replicate contained 20 plants in a tray. All plants were assessed for each prescribed parameter. For all parameter values vs control p=<0.05. RUBISCO is ribulose bisphosphate carboxylase, the major carbon-fixing enzyme.

oat seedlings [6] = assay: Soil application, carbon fixation capability in greenhouse grown oats; format: in vivo; conditions: soil drench 75 nanomoles daily; for increase of CO2 fixation compared to the untreated: plants 28 days old
Protocol: Sets (replicates) of oat seedlings were treated with 2HOP, L-PGA, or left untreated. Seeds were planted in standard potting soil in a greenhouse at a constant 75° F. under natural light, supplied a standard liquid nutrient solution, and treated daily with 75 nanomoles of either 2HOP or L-PGA beginning 14 days after seedling emergence. The treatments were applied as a soil drench. The CO2 fixation rates were measured when plants were 28 days old. The ribulose bisphosphate carboxylase (RUBISCO) activation state was measured when plants were 26 days old. The rates for 20 plants were averaged for each set of plants. […] L-PGA increased CO2 fixation compared to the untreated by 21%. However, when 2HOP is compared to L-PGA in terms of CO2 fixation, 2HOP fixed CO2 at over an 11% higher rate (see Table 14).

oat seedlings [7] = assay: Leaf protein content of oat seedlings; format: in vivo; conditions: three weekly foliar treatments 100 micromolar
Protocol: Sets of oat seedlings were treated or untreated with 2HOP and the total foliar protein content was compared. Seedlings were greenhouse-grown at 75° F. under ambient light and provided a standard complete nutrient. The seedlings were given three weekly foliar treatments with 2HOP (100 micromolar) beginning at the two-true leaf stage.

Pepper and tomato plants = assay: Leaf numbers, leaf area and dry weight of greenhouse-grown tomato and pepper; format: in vivo; conditions: foliar 1 g/L or 0.5 g+0.5 g/L, assessed at eight weeks
Protocol: Pepper and tomato plants were grown from seedlings for eight weeks in a greenhouse with ambient light at a constant 75° F. temperature. All plants received a standard fertigation treatment. Plants were destructively assessed at eight weeks. Each treatment had 20 single-plant replicates. Plants were treated with foliar applications of 2HOP (1 g/L water), […] water), or […] water). Each plant received approximately 50 ml of spray solution (sprayed to drip). All treatments included a wetting agent (polyalkyl glucoside) at 0.025% v/v addition. Plants received a light, cover spray at week 4. Plants were assessed in terms of leaf number per plant, leaf area/plant, and total dry weight/plant. In addition, at harvest, a composite leaf sample (10 leaves/plant, 200 leaves total) from each tomato treatment was collected, pooled with the other replicates, and assessed for elemental content which is presented in Table 18.

[8] = tested on: Hard Red Wheat seeds (variety Glenn); assay: Seed treatment, greenhouse-grown wheat leaf emergence; format: in vivo; conditions: greenhouse 65° F.
Protocol: The treatments were pre-diluted in an equivalent of 2 liters of water and applied to one ton of seed. The seeds were planted in a 30 cm×30 cm flat tray at 1 seed/cm^2 in a naturally illuminated greenhouse maintained at 65° F. See Table 19 in FIG. 14.

[9] = tested on: Wheat seeds (Skyfall variety); assay: Seed treatment, field grown wheat emergence and yield; format: in vivo
Source text: The treatments were pre-diluted in an equivalent of 2 liters of water and applied to one ton of seed. The seeds were planted in the fall at a rate of 200 kg/ha.

physchem = conditions: aqueous solutions
Grapevines = assay: Yield from grapevines grown in nematode infested soil; format: in vivo, grapevine; conditions: L-PGA root drench 1 g/L, Nemacur 7.5 ml/vine, vs untreated vines
Protocol: (§1) Grapevines were treated with L-PGA alone or in combination with Nemacur® at two sites in California. […] Vines at both sites were 6 years old and replanted into sandy soil (CEC <7 meq/100 g soil) previously planted with vines. […] Site 2 was in Fresno County (var: Thompson seedless) and at this site several parasitic nematode species were in evidence (Table 8). Several treatments were undertaken as per Tables 6 & 7. Untreated vines received the standard grower cultural management programs. At both sites the plants were ungrafted. At Site 1, soil levels of nematodes were assessed prior to the onset of treatments and at various times throughout the trial (as given in Table 7). Plants were treated in the spring, summer, and fall and assessed 12, 13, 15 and, 24 months later at Site 1. Yield data were collected at both sites. Site 1 was treated for two seasons and yield was collected over two seasons. At Site 2, yields were collected and soil nematode levels were assessed 18 months after the onset of the treatments. Site 2 was only treated for one season and only one crop year was assessed.

[10] = tested on: Root Knot nematode (Meloidogyne incognita, M. javanica, M. arenaria, and M. hapla); assay: Soil Root Knot nematode populations, grapevines, Site 1; format: in vivo; conditions: Site 1, after 15 months
Protocol: as §1

[11] = tested on: free-living (beneficial nematodes); conditions: in vivo
Protocol: as §1

plant parasitic nematode = assay: Soil plant parasitic nematode populations, grapevines, Site 2; format: in vivo, nematodes; conditions: Site 2, L-PGA combined with Nemacur
Protocol: L-PGA was applied by drenching the roots with a solution (5 liters per plant) containing 1 g/L L-PGA. Nemacur® 400ec was applied as a labelled commercial treatment to specific rows at the trial locations by injection through the micro irrigation system (7.5 ml/vine). Each treatment comprised 20 vines in five replicate blocks (4 vines/replicate). […] Several treatments were undertaken as per Tables 6 & 7. Untreated vines received the standard grower cultural management programs. At both sites the plants were ungrafted. […] Yield data were collected at both sites.

calcium phosphite
DON grain levels [1]: largest reduction

O=C1CC[C@@](O)(C(=O)O)N1 [2HOP, 2-hydroxy-5-oxoproline]
direct suppression of fungal growth (total surface area of colonies) [2]: no direct suppression of fungal growth | tissue levels of aromatic amino acids (lettuce plants): increased | phytotoxic impact of herbicides on wheat (Wheat (Winter White)): suppression of the phytotoxic impact | canopy biomass compared to the untreated (Wheat (Winter White)): visual increase in canopy biomass | free proline pools in leaves (oat seedlings [3]): 2.6 micromol/g fwt | cold damage compared with untreated plants [4]: less cold damage | rate of nitrate uptake relative to untreated counterparts (oat seedlings [5]): approximately double | rate of nitrate uptake (oat seedlings [5]; untreated 5.8): 11.5 umol/gfwt/h | elevation of CO2 fixation (leaf lettuce seedlings): > 50% | elevation of RUBISCO activation (leaf lettuce seedlings): 129% | elevation of biomass (leaf lettuce seedlings; average across all biomass parameters): 34% | CO2 fixation rate, 2HOP compared to L-PGA (oat seedlings [6]; higher rate than L-PGA): > 11% | increase of RUBISCO activation (oat seedlings [6]; plants 26 days old): 48% | increase of CO2 fixation compared to the untreated (oat seedlings [6]): 34% | total foliar fresh weight, % of the control plants (oat seedlings [7]): 183% | total foliar protein, % of untreated control plants (oat seedlings [7]): 252% | total protein in the foliar parts, % of untreated control plants (oat seedlings [7]): 252% | foliar protein concentration (oat seedlings [7]; control 6.0): 8.8 mg/g fresh weight | number of leaves, leaf area, and total dry weight (Pepper and tomato plants): greatest increases | leaf emergence compared to the untreated group [8]: increased | wheat yield compared to the untreated plots [9]: increased | solubility (physchem): 145 to 435 mg/mL (≈ 999 to 3000 mM)

O=C1CC[C@@H](C(=O)O)N1 [L-PGA, L-pyroglutamate]
direct suppression of fungal growth (total surface area of colonies) [2]: no direct suppression of fungal growth | tissue levels of aromatic amino acids (lettuce plants): increased | yield of grapevines (Grapevines): elevated yield | soil Root Knot nematode populations [10]: reduced | effect on free-living (beneficial nematodes) [11]: minimal effect | efficacy of Nemacur in soil plant parasitic nematode population suppression (plant parasitic nematode): increased the efficacy | phytotoxic impact of herbicides on wheat (Wheat (Winter White)): suppression of the phytotoxic impact | canopy biomass compared to the untreated (Wheat (Winter White)): visual increase in canopy biomass | cold damage compared with untreated plants [4]: less cold damage | increase of CO2 fixation compared to the untreated (oat seedlings [6]): 21% | increase of emergence versus the untreated [8]: 19% | leaf emergence compared to the untreated group [8]: increased | wheat yield compared to the untreated plots [9]: increased
